# Test results from patent US20240122930A1, “INTEGRIN INHIBITORS AND USES THEREOF IN COMBINATION WITH OTHER AGENTS” (Pliant Therapeutics, Inc., priority 2022, published 2024).
# Like-named read-outs stand apart in the source and are kept apart here.
# Test system: participants with idiopathic pulmonary fibrosis (IPF)
# [1] = 320 mg (n = 22), treatment up to 40 weeks
# [2] = All 40-160 mg (n = 67), 12 weeks
# [3] = All 40-320 mg (n = 88), 12 weeks
# [4] = pooled 40-160 mg, With Background SoC (n = 55), 12 weeks
# [5] = pooled 40-160 mg, With Background SoC nintedanib or pirfenidone (n = 55), 12 weeks
# [6] = pooled 40-160 mg, Without Background SoC (n = 12), 12 weeks
# [7] = single participant, 320 mg, after week 12, not drug related, resolved
# [8] = single participant, 320 mg, after week 12, not drug related, resolved with sequalae
# Excerpt: The groups were stratified for the use of nintedanib or pirfenidone. The groups were screened 28 days before the Day 1 of the study. At Day 1, baseline values were collected. During week 12, the subjects received the last dose, and the study was ended at week 14. Primary and secondary endpoints of the study included safety, tolerability, and PK. Exploratory endpoints included change in FVC over 12 weeks; High Resolution CT-based Quantitative Lung Fibrosis (QLF) imaging; patient-reported outcome (PRO): VAS-cough severity; and effect on selected biomarkers.
# The groups were stratified for the use of nintedanib or pirfenidone. The screening was done 28 days before Day 1 and the baseline was measured on Day 1. The last dose was on Week 12, and the end of study was on Week 14. The primary and secondary endpoints include safety, tolerability, and PK. Exploratory Endpoints include change in Forced Vital Capacity (FVC) over 12 weeks, High Resolution CT-based Quantitative Lung Fibrosis (QLF) imaging, and effect on selected biomarkers.
# The groups were stratified for the use of nintedanib or pirfenidone. The groups were screened 28 days before the Day 1 of the study. At Day 1, baseline values were collected. The study was continued up to Week 48. The treatment duration per protocol is at least 24 weeks and at most 48 weeks. For the study, the primary and secondary endpoints evaluated in the trial were safety, tolerability, and pharmacokinetics. The exploratory endpoints evaluated included the change in FVC over 12 and 24 weeks; high Resolution CT-based Quantitative Lung Fibrosis (QLF) imaging; patient-reported cough severity; and effect on selected biomarkers.
compound,measurement,setting,value
"COCCN(CCCCc1ccc2c(n1)NCCC2)CC[C@H](Nc1ncnc2ccccc12)C(=O)O [Compound 5, (S)-4-((2-methoxyethyl) (4-(5,6,7,8-tetrahydro-1,8-naphthyridin-2-yl)butyl)amino)-2-(quinazolin-4-ylamino) butanoic acid]","TEAE Dyspnoea, participants reporting",[1],5 n
same,TEAE Idiopathic Pulmonary Fibrosis related to study drug,[1],0 n
same,"TEAE Idiopathic Pulmonary Fibrosis, % of participants",[1],(18.2) %
same,"TEAE Idiopathic Pulmonary Fibrosis, participants reporting",[1],4 n
same,TEAE Leading to Death,[1],1 n
same,"TEAE Leading to Death, % of participants",[1],(4.5) ^3%
same,TEAE Leading to Early Termination from Study,[1],3 n
same,"TEAE Leading to Early Termination from Study, % of participants",[1],"(13.6) ^2,3,4%"
same,TEAE Leading to Interruption of Study Drug,[1],4 n
same,"TEAE Leading to Interruption of Study Drug, % of participants",[1],(18.2) ^2%
same,TEAE Leading to Withdrawal of Study Drug,[1],3 n
same,"TEAE Leading to Withdrawal of Study Drug, % of participants",[1],"(13.6) ^2,3,4%"
same,TEAE Upper respiratory tract infection related to study drug,[1],0 n
same,"TEAE Upper respiratory tract infection, % of participants",[1],(9.1) %
same,"TEAE Upper respiratory tract infection, participants reporting",[1],2 n
same,TEAE of CTCAE Grade 3 or Higher,[1],5 n
same,"TEAE of CTCAE Grade 3 or Higher related to study drug, % of participants",[1],(4.5) ^1%
same,"TEAE of CTCAE Grade 3 or Higher, % of participants",[1],(22.7) %
same,TEAE related to study drug,[1],5 n
same,"TEAE related to study drug, % of participants",[1],(22.7) %
same,"TEAE, % of participants",[1],(90.9) %
same,"TEAE, participants reporting",[1],20 n
same,TEAE of CTCAE Grade 3 or Higher related to study drug,"320 mg (n = 22), treatment up to 40 weeks, blood pressure increased",1 n
same,Safety and tolerability,"320 mg, long-term treatment up to 40 weeks",well tolerated
same,"Any AEs, % of participants",[2],(68.7) %
same,"Any AEs, participants reporting",[2],46 n
same,Serious TEAE,[2],3 n
same,Serious TEAE related to study drug,[2],0 n
same,"Serious TEAE, % of participants",[2],(4.5) %
same,"TEAE Diarrhea (any causality), % of participants",[2],(17.9) %
same,"TEAE Diarrhea (any causality), participants reporting",[2],12 n
same,"TEAE Diarrhea related to study drug, % of participants",[2],(11.9) %
same,"TEAE Diarrhea related to study drug, participants reporting",[2],8 n
same,TEAE Leading to Death,[2],0 n
same,TEAE Leading to Early Termination from Study,[2],0 n
same,TEAE Leading to Interruption of Study Drug,[2],1 n
same,"TEAE Leading to Interruption of Study Drug, % of participants",[2],(1.5) %
same,TEAE Leading to Withdrawal of Study Drug,[2],0 n
same,TEAE of CTCAE Grade 3 or Higher,[2],4 n
same,TEAE of CTCAE Grade 3 or Higher related to study drug,[2],1 n
same,"TEAE of CTCAE Grade 3 or Higher related to study drug, % of participants",[2],(1.5) %
same,"TEAE of CTCAE Grade 3 or Higher, % of participants",[2],(6.0) %
same,TEAE related to study drug,[2],15 n
same,"TEAE related to study drug, % of participants",[2],(22.4) %
same,"TEAE, % of participants",[2],(67.2) %
same,"TEAE, participants reporting",[2],45 n
same,"Any AEs, % of participants",[3],72.7%
same,"Any AEs, participants reporting",[3],64 n
same,Serious TEAE,[3],4 n
same,Serious TEAE related to study drug,[3],0 n
same,"Serious TEAE, % of participants",[3],4.5%
same,"TEAE Diarrhea (any causality), % of participants",[3],17.0%
same,"TEAE Diarrhea (any causality), participants reporting",[3],15 n
same,"TEAE Diarrhea related to study drug, % of participants",[3],11.4%
same,"TEAE Diarrhea related to study drug, participants reporting",[3],10 n
same,TEAE Leading to Death,[3],1 n
same,"TEAE Leading to Death, % of participants",[3],1.1%
same,TEAE Leading to Early Termination from Study,[3],3 n
same,"TEAE Leading to Early Termination from Study, % of participants",[3],3.4%
same,TEAE Leading to Interruption of Study Drug,[3],2 n
same,"TEAE Leading to Interruption of Study Drug, % of participants",[3],2.3%
same,TEAE Leading to Withdrawal of Study Drug,[3],3 n
same,"TEAE Leading to Withdrawal of Study Drug, % of participants",[3],3.4%
same,TEAE of CTCAE Grade 3 or Higher,[3],6 n
same,TEAE of CTCAE Grade 3 or Higher related to study drug,[3],1 n
same,"TEAE of CTCAE Grade 3 or Higher related to study drug, % of participants",[3],1.1%
same,"TEAE of CTCAE Grade 3 or Higher, % of participants",[3],6.8%
same,TEAE related to study drug,[3],19 n
same,"TEAE related to study drug, % of participants",[3],21.6%
same,"TEAE, % of participants",[3],70.5%
same,"TEAE, participants reporting",[3],62 n
same,SAE Acute respiratory failure: Standard Toxicity Grade,"one participant, 40 mg, not treatment related, dose not changed, recovered/resolved",Grade 3
same,SAE Idiopathic pulmonary fibrosis (acute exacerbation): Standard Toxicity Grade,"one participant, 160 mg, not treatment related, about 2 weeks after 12-week treatment, not recovered/not resolved",Grade 3
same,SAE Atrial flutter: Standard Toxicity Grade,"one participant, 160 mg, not treatment related, underlying disease, recovered/resolved",Grade 3
same,SAE Acute respiratory failure: Standard Toxicity Grade,"one participant, 320 mg, GAP Stage III, after elective atrioventricular node ablation, not treatment related, drug withdrawn, fatal",Grade 5
same,"AE leading to withdrawal, Diarrhea: Standard Toxicity Grade","one participant, 320 mg, receiving nintedanib, recovered/resolved",Grade 1
same,"Any AEs, % of participants",[4],(69.1) %
same,"Serious TEAE, % of participants",[4],(5.5) %
same,"TEAE of CTCAE Grade 3 or Higher related to study drug, % of participants",[4],(1.8) %
same,"TEAE of CTCAE Grade 3 or Higher, % of participants",[4],(7.3) %
same,"TEAE related to study drug, % of participants",[4],(23.6) %
same,"TEAE, % of participants",[4],(67.3) %
same,"Any AEs, participants reporting",[5],38 n
same,Serious TEAE,[5],3 n
same,Serious TEAE related to study drug,[5],0 n
same,TEAE Leading to Death,[5],0 n
same,TEAE Leading to Early Termination from Study,[5],0 n
same,TEAE Leading to Interruption of Study Drug,[5],0 n
same,TEAE Leading to Withdrawal of Study Drug,[5],0 n
same,TEAE of CTCAE Grade 3 or Higher,[5],4 n
same,TEAE of CTCAE Grade 3 or Higher related to study drug,[5],1 n
same,TEAE related to study drug,[5],13 n
same,"TEAE, participants reporting",[5],37 n
same,"Any AEs, % of participants",[6],(66.7) %
same,"Any AEs, participants reporting",[6],8 n
same,Serious TEAE,[6],0 n
same,Serious TEAE related to study drug,[6],0 n
same,TEAE Leading to Death,[6],0 n
same,TEAE Leading to Early Termination from Study,[6],0 n
same,TEAE Leading to Interruption of Study Drug,[6],1 n
same,"TEAE Leading to Interruption of Study Drug, % of participants",[6],(8.3) %
same,TEAE Leading to Withdrawal of Study Drug,[6],0 n
same,TEAE of CTCAE Grade 3 or Higher,[6],0 n
same,TEAE of CTCAE Grade 3 or Higher related to study drug,[6],0 n
same,TEAE related to study drug,[6],2 n
same,"TEAE related to study drug, % of participants",[6],(16.7) %
same,"TEAE, % of participants",[6],(66.7) %
same,"TEAE, participants reporting",[6],8 n
same,SAE Pneumonia: Standard Toxicity Grade,"same participant, 40 mg, not treatment related, removed carpet from home without a mask, recovered/resolved",Grade 2
same,SAE Iron Deficiency anemia: Standard Toxicity Grade,"single participant, 320 mg, Week 29, not drug related, resolved with sequalae",Grade 3
same,SAE Ileus: Standard Toxicity Grade,"single participant, 320 mg, after week 12 (Week 21 hospitalization), not drug related, resolved",Grade 3
same,SAE Acute Kidney Injury: Standard Toxicity Grade,[7],Grade 2
same,SAE Gastritis: Standard Toxicity Grade,[7],Grade 2
same,SAE Hyperlactatemia: Standard Toxicity Grade,[7],Grade 2
same,SAE Acute Left Heart Failure: Standard Toxicity Grade,[8],Grade 3
same,SAE Gastric Ulcer: Standard Toxicity Grade,[8],Grade 3
same,SAE Haemorrhagic arteriovenous malformation: Standard Toxicity Grade,[8],Grade 3
